Data on 1 substance can be found in patent US20230399358A1, “IMMUNOGLOBULIN PURIFICATION PEPTIDES AND THEIR USE” (North Carolina State University, priority 2019, published 2023).

In one test the test system is human IgG. The test is classed as binding. Conditions: peptide on Toyopearl AF-amino-650M, 30 min, room temperature. On the procedure:
Measurement of IgG binding by peptide-based chromatographic adsorbents: For initial studies, 35 mg of MWRGWQ (SEQ ID NO:2)-Toyopearl, RHLGWF (SEQ ID NO:3)-Toyopearl, WQRHGI (SEQ ID NO:1)-Toyopearl, GWLHQR (SEQ ID NO:4)-Toyopearl, and HWRGWV (SEQ ID NO:18)-Toyopearl (control) resins were equilibrated in PBS pH 7.4, reaching a swollen volume of 0.1 mL, and subsequently incubated with 1 mg/mL IgG in 0.205 mg/mL CHO cell culture supernatant for 30 minutes. The resins were subsequently washed several times with PBS to remove non-specifically bound proteins. Elution was performed with 100 mM glycine buffer pH 2.5. Flowthrough and elution fractions were collected and analyzed by SDS PAGE under reducing conditions. The resulting gels were stained with Coomassie staining. Further, 25 mg of the adsorbents MWRGWQ (SEQ ID NO:2)-Toyopearl, NIFRGWQ (SEQ ID NO:21)-Toyopearl, MWRAWQ (SEQ ID NO:5)-Toyopearl, MWRGFQ (SEQ ID NO:7)-Toyopearl, MWRGWN (SEQ ID NO:22)-Toyopearl, (NorL) WRGWQ (SEQ ID NO:23)-Toyopearl, MGRGWQ (SEQ ID NO:24)-Toyopearl, MWRWQ (SEQ ID NO:6)-Toyopearl, MWRGGQ (SEQ ID NO:26)-Toyopearl, GWRGWQ (SEQ ID NO:8)-Toyopearl, WQRHGI (SEQ ID NO:1)-Toyopearl, WNRHGI (SEQ ID NO:12)-Toyopearl, WQRAGI (SEQ ID NO:28)-Toyopearl, WQRHAI (SEQ ID NO:11)-Toyopearl, WQRHGL (SEQ ID NO:9)-Toyopearl, FQRHGI (SEQ ID NO:29)-Toyopearl, and WQRHGV (SEQ ID NO:10)-Toyopearl resins were equilibrated in PBS pH 7.4, reaching a swollen volume of 0.1 mL, and subsequently incubated with 1 mg/mL IgG in PBS at pH 7.4 for 30 minutes. The amount of unbound IgG in the supernatant samples was quantified by Bradford assay and utilized to determine the IgG binding % by the peptide variants.
A limited library of residue-by-residue changes confirmed the importance of each residue in peptides WQRHGI (SEQ ID NO:1) and MWRGWQ (SEQ ID NO:2) in reducing the binding energy between the peptide and the IgG target. […] This was accomplished by designing and constructing an ensemble of 20 variants of peptides WQRHGI (SEQ ID NO:1) and MWRGWQ (SEQ ID NO:2). Selected residues in positions 1-6 were mutated. The peptide variants were synthesized directly on Toyopearl AF-amino-650M resin via Fmoc/tBu chemistry. The resulting adsorbents were incubated with a solution of human IgG at 2 mg/mL at a ratio of 1 mL of resin per 3.5 mL of solution for 30 min at room temperature. The residual concentration of IgG in solution was determined by Bradford concentration assay of the supernatants and utilized to calculate the amounts of bound IgG per volume of resin; Table 7 reports the % binding, defined as mg IgG bound by variant/mg IgG bound by original sequence (either WQRHGI (SEQ ID NO:1) or MWRGWQ (SEQ ID NO:2))×100%, of each sequence variant.

The subject of test [1] is human polyclonal IgG. The experiment in a line: Static binding isotherm on WorkBeads adsorbents, Langmuir fit. Conditions: WorkBeads adsorbent, PBS pH 7.4, Langmuir fit. The text has this: Measurements of static and dynamic binding capacity: […] NO:2)-Workbeads and […] NO:30)-Workbeads were characterized in terms of static and dynamic binding capacity respectively by batch and breakthrough binding studies. The peptides […] NO:3) and […] NO:4) were not selected for further studies due to their low selectivity and low yield, respectively. […] The resin was pelleted by centrifugation and the supernatant removed. […] The resulting fractions were combined and analyzed by BCA assay to quantify the unbound IgG and, accordingly, the amount of IgG adsorbed. The resulting data were fit to a Langmuir isotherm to determine the values of Qmax and KD(Solid). […] The amount of unbound IgG was determined by analyzing the supernatants via Micro BCA Protein Assay Kit. The amount of bound IgG per volume of resin (Q) was determined by mass balance and plotted against the corresponding equilibrium concentration of unbound IgG in solution (CIgG). The data were fit to a Langmuir isotherm model, thus providing a value of maximum binding capacity (Qmax) and dissociation constant (KD).

Test [2] addresses human polyclonal IgG. The test can be described thus: Isothermal titration calorimetry (ITC) of IgG:ligand binding in solution. To be noted: 25° C, PBS pH 7.4, peptide in solution, independent binding model. The procedure: Measurements of IgG-binding affinity in solution by isothermal titration calorimetry (ITC): Experimental determination of the binding free energy of the IgG:WQRHGI (SEQ ID NO:1) complex was performed by ITC using a Nano ITC Low Volume calorimeter (TA Instruments, New Castle, DE). […] All solutions were filtered through a 0.22 p.m syringe filter prior to use. Ten injections were performed for each measurement. Background energy from peptide dilution was determined by performing 10 injections of 5 μL of a 2 mg/mL solution of WQRHGI (SEQ ID NO:1) in PBS pH 7.4. The titration data were analyzed using NanoAnalyze software (TA Instruments) and plotted using an independent fitting, which fits the resultant Wiseman plot with parameters corresponding to a non-competitive single-site binding phenomenon in order to calculate the binding affinity (K(D(ITC)), and the stoichiometry (N) of the interaction. A constant blank was also utilized in the fitting to account for the heat of dilution of the IgG substrate.
Characterization of binding affinity for IgG-binding peptide variants WQRHGI (SEQ ID NO:1) and MWRGWQ (SEQ ID NO:2) in non-competitive conditions: Candidate peptide ligands WQRHGI (SEQ ID NO:1) and MWRGWQ (SEQ ID NO:2) were selected for experimental evaluation of IgG binding in non-competitive conditions (pure IgG in solution). […]
(In general: Isothermal titration calorimetry measures the heat released or taken up as one component is titrated into another.)

Turning to WQRHGI, the “% Binding (mg IgG bound by variant/mg IgG bound by original sequence × 100%)” value in the test on human IgG was determined as 100.00%. The substance also had a Qmax with human polyclonal IgG [1] of 52.6 mg IgG/mL resin. In addition, the equilibrium dissociation constant (Kd) (as a rule, the concentration at which binding is half-saturated) was 3.2 µM on human polyclonal IgG [1] (read-out: KD(Solid)) and 58.8 µM at human polyclonal IgG [2].
